What all share (format): cell-based
Experiment [1] relates to SKOV3. Kind of experiment: Cytotoxicity, ovarian cancer cell line SKOV3. The settings on record: Homo sapiens, SK-OV-3.
For experiment [2], the system named is MDA-MB-231. Kind of experiment: Cytotoxicity, triple negative breast cancer cell line MDA-MB-231. The settings on record: Homo sapiens.
Experiment [3] deals with 4T1. Kind of experiment: Cytotoxicity, triple negative breast cancer cell line 4T1. The following applies: Mus musculus.
Experiment [4] relates to BxPC3. Put plainly: Cytotoxicity, pancreatic cancer cell line BxPC3. The following applies: Homo sapiens, BXPC-3.
Experiment [5] concerns CFPAC-1. Put plainly: Cytotoxicity, pancreatic cancer cell line CFPAC-1. The settings on record: Homo sapiens.

One may read the IC50 as the midpoint of a concentration-inhibition curve. A lower IC50 goes with higher potency.

Structures are written as SMILES.

Take `CC(=O)O[C@@]12CO[C@@H]1C[C@H](O)[C@@]1(C)C(=O)[C@H](O)C3=C(C)[C@@H](OC(=O)[C@H](O)[C@@H](NC(=O)OC(C)(C)C)c4ccccc4)C[C@@](O)([C@@H](OC(=O)c4ccccc4)[C@H]21)C3(C)C` [DTX, docetaxel]: the IC50 in experiment [1] was found to be 0.0101 µM; in experiment [2], 0.0187 µM; in experiment [3] it was 0.0291 µM; in experiment [4], 0.0229 µM; in experiment [5], 0.0388 µM.
